Patent US11866414B2, “Substituted heterocyclic compounds” (BRISTOL-MYERS SQUIBB COMPANY, priority 2021, dated 2024)

Key:
[1] = system: IFNα-induced STAT phosphorylation (pSTAT5); experiment: IFNα-induced STAT phosphorylation in human whole blood; type: cell-based; conditions: 1 h compound, 1000 U/mL IFNα A/D 15 min, CD3 positive population, read-out: Human Whole blood IFNa pSTAT5 IC50
Procedure: IFNα-Induced STAT Phosphorylation in Human Whole Blood
After an hour long incubation with compound, human whole blood (drawn with ACD-A as anticoagulant) was stimulated with 1000 U/mL recombinant human IFNα A/D (R&D Systems 11200-2) for 15 min. The stimulation was stopped by adding Fix/Lyse buffer (BD 558049). Cells were stained with a CD3 FITC antibody (BD 555916), washed, and permeabilized on ice using Perm III buffer (BD 558050). Cells were then stained with an Alexa-Fluor 647 pSTAT5 (pY694) antibody (BD 612599) for 60 min prior to analysis on the iQue Plus. The amount of pSTAT5 expression was quantitated by median fluorescence intensity after gating on the CD3 positive population.

in vitro = conditions: human, Caco-2, pH 7.4

Compound: [2H]C([2H])([2H])NC(=O)c1nnc(Nc2ccn(C)n2)cc1Nc1cccc(-c2cnn(C)n2)c1OC [Example 25, 4-((2-methoxy-3-(2-methyl-2H-1,2,3-triazol-4-yl)phenyl)amino)-N-(methyl-d3)-6-((1-methyl-1H-pyrazol-3-yl)amino)pyridazine-3-carboxamide]
- IC50 [1]: 0.06 µM
- Papp A→B at 2 h, 3 μM (in vitro): 1.9 ×10⁻⁶ cm/s
- efflux ratio at 2 h, 3 μM (in vitro): 1.2

Compound: [2H]C([2H])([2H])NC(=O)c1nnc(NC(=O)[C@@H]2C[C@@H]2C)cc1Nc1cccc(-c2cnn(C)n2)c1OC [Example 26, 4-((2-methoxy-3-(2-methyl-2H-1,2,3-triazol-4-yl)phenyl)amino)-N-(methyl-d3)-6-((1R,2S)-2-methylcyclopropane-1-carboxamido)pyridazine-3-carboxamide]
- IC50 [1]: 0.06 µM
- Papp A→B at 2 h, 3 μM (in vitro): 33.4 ×10⁻⁶ cm/s
- efflux ratio at 2 h, 3 μM (in vitro): 0.6

Compound: [2H]C([2H])([2H])NC(=O)c1nnc(NC(=O)C2CC2)cc1Nc1cccc(-c2nn(C3CC3)nc2C)c1OC [Example 27, 6-(cyclopropanecarboxamido)-4-((3-(2-cyclopropyl-5-methyl-2H-1,2,3-triazol-4-yl)-2-methoxyphenyl)amino)-N-(methyl-d3)pyridazine-3-carboxamide]
- IC50 [1]: 0.21 µM
- Papp A→B at 2 h, 3 μM (in vitro): 20.5 ×10⁻⁶ cm/s
- efflux ratio at 2 h, 3 μM (in vitro): 0.8

Compound: [2H]C([2H])([2H])NC(=O)c1nnc(NC(=O)OCC)cc1Nc1cccc(-c2cnn(C)n2)c1OC [Example 28, ethyl (5-((2-methoxy-3-(2-methyl-2H-1,2,3-triazol-4-yl)phenyl)amino)-6-((methyl-d3)carbamoyl)pyridazin-3-yl)carbamate]
- IC50 [1]: 0.37 µM
- Papp A→B at 2 h, 3 μM (in vitro): 28 ×10⁻⁶ cm/s
- efflux ratio at 2 h, 3 μM (in vitro): 0.5

Compound: [2H]C([2H])([2H])NC(=O)c1nnc(NC(=O)[C@@H]2C[C@H]2F)cc1Nc1cccc(-c2cnn(C)n2)c1OC [Example 29, 6-((1S,2R)-2-fluorocyclopropane-1-carboxamido)-4-((2-methoxy-3-(2-methyl-2H-1,2,3-triazol-4-yl)phenyl)amino)-N-(methyl-d3)pyridazine-3-carboxamide]
- IC50 [1]: 0.05 µM
- Papp A→B at 2 h, 3 μM (in vitro): 37.9 ×10⁻⁶ cm/s
- efflux ratio at 2 h, 3 μM (in vitro): 0.5

Compound: [2H]C([2H])([2H])NC(=O)c1nnc(NC(=O)[C@H]2C[C@H]2C)cc1Nc1cccc(-c2cnn(C)n2)c1OC [Example 30, 4-((2-methoxy-3-(2-methyl-2H-1,2,3-triazol-4-yl)phenyl)amino)-N-(methyl-d3)-6-((1S,2R)-2-methylcyclopropane-1-carboxamido)-pyridazine-3-carboxamide]
- IC50 [1]: 0.06 µM
- Papp A→B at 2 h, 3 μM (in vitro): 29.9 ×10⁻⁶ cm/s
- efflux ratio at 2 h, 3 μM (in vitro): 0.7

Compound: [2H]C([2H])([2H])NC(=O)c1nnc(NC(=O)C2CC2(F)F)cc1Nc1cccc(-c2cnn(C)n2)c1OC (stereo not drawn) [Example 31, 6-(2,2-difluorocyclopropane-1-carboxamido)-4-((2-methoxy-3-(2-methyl-2H-1,2,3-triazol-4-yl)phenyl)amino)-N-(methyl-d3)pyridazine-3-carboxamide]
- IC50 [1]: 0.11 µM
- Papp A→B at 2 h, 3 μM (in vitro): 31.3 ×10⁻⁶ cm/s
- efflux ratio at 2 h, 3 μM (in vitro): 0.8

Compound: [2H]C([2H])([2H])NC(=O)c1nnc(NC(=O)C2CC2)cc1Nc1cc(C(=O)OC)cc(-c2cnn(C)n2)c1OC [Example 32, methyl 3-((6-(cyclopropanecarboxamido)-3-((methyl-d3)carbamoyl)-pyridazin-4-yl)amino)-4-methoxy-5-(2-methyl-2H-1,2,3-triazol-4-yl)benzoate]
- IC50 [1]: 0.22 µM
- Papp A→B at 2 h, 3 μM (in vitro): 19.5 ×10⁻⁶ cm/s
- efflux ratio at 2 h, 3 μM (in vitro): 0.9

Compound: [2H]C([2H])([2H])NC(=O)c1nnc(NC(=O)C2CC2)cc1Nc1ccc(C)c(-c2cnn(C)n2)c1OC [Example 33, 6-(cyclopropanecarboxamido)-4-((2-methoxy-4-methyl-3-(2-methyl-2H-1,2,3-triazol-4-yl)phenyl)amino)-N-(methyl-d3)pyridazine-3-carboxamide]
- IC50 [1]: 0.08 µM
- Papp A→B at 2 h, 3 μM (in vitro): 34.5 ×10⁻⁶ cm/s
- efflux ratio at 2 h, 3 μM (in vitro): 0.8

Compound: [2H]C([2H])([2H])NC(=O)c1nnc(NC(=O)C2CC2)cc1Nc1cc(C(=O)OC(C)C)cc(-c2cnn(C)n2)c1OC [Example 34, isopropyl 3-((6-(cyclopropanecarboxamido)-3-((methyl-d3)carbamoyl)pyridazin-4-yl)amino)-4-methoxy-5-(2-methyl-2H-1,2,3-triazol-4-yl)benzoate]
- IC50 [1]: 0.16 µM
- Papp A→B at 2 h, 3 μM (in vitro): 20.9 ×10⁻⁶ cm/s
- efflux ratio at 2 h, 3 μM (in vitro): 0.3

Compound: [2H]C([2H])([2H])NC(=O)c1nnc(NC(=O)C2CC2)cc1Nc1cc(COC)cc(-c2cnn(C)n2)c1OC [Example 35, 6-(Cyclopropanecarboxamido)-4-((2-methoxy-5-(methoxymethyl)-3-(2-methyl-2H-1,2,3-triazol-4-yl)phenyl)amino)-N-(methyl-d3)pyridazine-3-carboxamide]
- IC50 [1]: 0.02 µM
- Papp A→B at 2 h, 3 μM (in vitro): 42.9 ×10⁻⁶ cm/s
- efflux ratio at 2 h, 3 μM (in vitro): 0.6

Compound: [2H]C([2H])([2H])NC(=O)c1nnc(NC(=O)C2CC2(C)C)cc1Nc1nccc(-c2cnn(C)n2)c1OC (stereo not drawn) [Example 38, 6-(2,2-dimethylcyclopropane-1-carboxamido)-4-((3-methoxy-4-(2-methyl-2H-1,2,3-triazol-4-yl)pyridin-2-yl)amino)-N-(methyl-d3)pyridazine-3-carboxamide]
- IC50 [1]: 0.44 µM
- Papp A→B at 2 h, 3 μM (in vitro): 33 ×10⁻⁶ cm/s
- efflux ratio at 2 h, 3 μM (in vitro): 0.4

Compound: [2H]C([2H])([2H])NC(=O)c1nnc(NC(=O)N(C)C)cc1Nc1nccc(-c2cnn(C)n2)c1OC [Example 39, 6-(3,3-dimethylureido)-4-((3-methoxy-4-(2-methyl-2H-1,2,3-triazol-4-yl)pyridin-2-yl)amino)-N-(methyl-d3)pyridazine-3-carboxamide]
- IC50 [1]: 0.42 µM
- Papp A→B at 2 h, 3 μM (in vitro): 18.8 ×10⁻⁶ cm/s
- efflux ratio at 2 h, 3 μM (in vitro): 0.4

Compound: [2H]C([2H])([2H])NC(=O)c1nnc(NC(=O)[C@H]2C[C@H]2C)cc1Nc1nccc(-c2cnn(C)n2)c1OC [Example 40, 4-((3-methoxy-4-(2-methyl-2H-1,2,3-triazol-4-yl)pyridin-2-yl)amino)-N-(methyl-d3)-6-((1S,2R)-2-methylcyclopropane-1-carboxamido)pyridazine-3-carboxamide]
- IC50 [1]: 0.04 µM
- Papp A→B at 2 h, 3 μM (in vitro): 25.9 ×10⁻⁶ cm/s
- efflux ratio at 2 h, 3 μM (in vitro): 0.8

Compound: [2H]C([2H])([2H])NC(=O)c1nnc(NC(=O)[C@H]2C[C@@H]2C)cc1Nc1nccc(-c2cnn(C)n2)c1OC [Example 42, 4-((3-methoxy-4-(2-methyl-2H-1,2,3-triazol-4-yl)pyridin-2-yl)amino)-N-(methyl-d3)-6-((1S,2S)-2-methylcyclopropane-1-carboxamido)pyridazine-3-carboxamide]
- IC50 [1]: 0.05 µM
- Papp A→B at 2 h, 3 μM (in vitro): 28.7 ×10⁻⁶ cm/s
- efflux ratio at 2 h, 3 μM (in vitro): 0.4

Compound: [2H]C([2H])([2H])NC(=O)c1nnc(NC(=O)[C@@H]2C[C@H]2CC)cc1Nc1nccc(-c2cnn(C)n2)c1OC [Example 43, 6-((1R,2R)-2-ethylcyclopropane-1-carboxamido)-4-((3-methoxy-4-(2-methyl-2H-1,2,3-triazol-4-yl)pyridin-2-yl)amino)-N-(methyl-d3)pyridazine-3-carboxamide]
- IC50 [1]: 0.28 µM
- Papp A→B at 2 h, 3 μM (in vitro): 13.4 ×10⁻⁶ cm/s
- efflux ratio at 2 h, 3 μM (in vitro): 0.6
